Data as given in patent US10987325B2, “Compositions and uses thereof for treating inflammatory diseases and probiotic compositions” (CHAIN Biotechnology Limited, priority 2016, dated 2021).

Key:
[1] = tested on: ex vivo colon tissue samples; experiment: Ex-vivo human colon tissue model, TNF-α stimulus, Proteome Profiler Human XL Cytokine Array; type: cell-based; conditions: TNF-α 60 min then 10 mM for 24 hours, versus TNF-α alone
Protocol: To induce inflammation, explants are incubated with 100 μl of inflammatory stimulus (TNF-α 15 μg/ml) in 96-well U-bottom sterile plates. Incubate explants for one hour with […] of complete medium (DMEM containing FCS, L-glutamine and antibiotics). […] Tissue explants are then cultured at 37° C. in an atmosphere containing 5% CO2 for 24 hours. Negative controls are tissue explants cultured without stimulus nor candidate compounds (add 200 μl of complete medium). Positive controls are explants treated only with inflammatory stimulus. Following culture, remove tissue explants from culture wells, spin down plates and harvest 180 μl of the culture supernatant. Freeze supernatants and tissue explants at −80° C. Proceed to quantification of analytes of interest in supernatants and/or tissue explants. A Proteome Profiler™ Array was used to measure the relative abundance of a larger set of proteins and cytokines involved in the immune response. The experimental conditions and the preparation of the colon tissue samples was the same as described above. The Human XL Cytokine Array Kit (www.rndsystems.com), Catalog Number ARY022 was used for this experiment. Cytokines, chemokines and growth factors are extracellular signaling molecules that mediate cell to cell communication. These molecules are released from cells and have critical roles in many biological processes such as cellular growth, differentiation, gene expression, migration, immunity and inflammation. In most biological processes, multiple cytokines operate in a large network, where the action of one cytokine is regulated by the presence or absence of other cytokines. The Human XL Cytokine Array Kit is a rapid, sensitive, and economic tool to simultaneously detect cytokine differences between samples. The relative expression levels of 102 human soluble proteins can be determined without performing numerous immunoassays. Capture and control antibodies have been spotted in duplicate on nitrocellulose membranes. […]

[2] = tested on: primary human intestinal organoids; experiment: Primary human intestinal organoids, TNFα (40 ng/mL) induced inflammation, mRNA of NF-κB and TNFα by qPCR; type: cell-based; conditions: 10 μM, 18 hours
[3] = tested on: ex vivo colon tissue samples; experiment: Ex-vivo human colon tissue model, TNF-α stimulus, protein in culture supernatants by Luminex; type: cell-based
Excerpt: Colorectal specimens can be obtained from surgical resections of intestinal tissue or from biopsies, after receiving signed informed consent from the patients. Following resection of tissue, specimens are kept in a specimen collection pot containing DMEM for transportation to the laboratory. Put the specimen in a Petri plate with some medium. Strip the muscle from the resected specimen with sterile scalpel. Transfer the remaining tissue into a new Petri plate with medium and cut the tissue into explants comprising both epithelial and muscularis mucosae (Berry […]. Methods Mol. Biol. 2011; 665: 133-60). Proceed to assay. To induce inflammation, explants are incubated with 100 μl of inflammatory stimulus (TNF-α 15 μg/ml) in 96-well U-bottom sterile plates. Incubate explants for one hour with […] of complete medium (DMEM containing FCS, L-glutamine and antibiotics). […] Tissue explants are then cultured at 37° C. in an atmosphere containing 5% CO2 for 24 hours. Negative controls are tissue explants cultured without stimulus nor candidate compounds (add 200 μl of complete medium). Positive controls are explants treated only with inflammatory stimulus. Following culture, remove tissue explants from culture wells, spin down plates and harvest 180 μl of the culture supernatant. Freeze supernatants and tissue explants at -80° C. Proceed to quantification of analytes of interest in supernatants and/or tissue explants. The Luminex method was used to determine protein concentration in culture supernatants: Luminex Protocol: In house assay was conducted by Dr Carolina Herrera at St Mary's Hospital, Paddington, London. Luminex Assay Buffer: PBS, goat serum, mouse serum, Tween 20, Tris pH 7-8. Luminex Wash Buffer: PBS, Tween-20. Procedure: […] Relative protein level [ng/mL] was determined using a standard curve.

IL-23 = experiment: Primary human intestinal organoids, TNF-α (60 ng/mL), IL-23 mRNA at increasing concentrations, qPCR; type: cell-based; conditions: 24 hours; for impact on IL-23 expression compared with butyrate: at 10-100 μM
Protocol: Primary human intestinal organoids were cultured for 8 weeks prior to experiments as described in […] et al. (2013) Stem Cell Reports.

[4] = tested on: primary human intestinal organoids; experiment: Primary human intestinal organoids, TNF-α (40 ng/mL) induced inflammation, mRNA panel of inflammation factors by qPCR
[5] = TNF-α 60 min then 10 mM for 24 hours, versus TNF-α alone
[6] = ex vivo colon tissue, data not shown
[7] = TNF-α 40 ng/mL, sodium salts at 10 μM, 18 hours, versus TNF-α alone

(R)-3-hydroxybutyrate [(R)-3-HB]
protein concentration of IL-23 (relative abundance, non-quantitative) [1]: decreased | protein concentration of MMP9 (relative abundance, non-quantitative) [1]: decreased | protein concentration of TNF-α (relative abundance, non-quantitative) [1]: decreased | mRNA expression of NF-κB [2]: decreased | mRNA expression of TNF-α [2]: decreased | protein concentration of IL-1β [3, 5]: decreased | protein concentration of IL-6 [3, 5]: decreased | protein concentration of IL-12 [3, 5]: decreased | protein concentration of anti-inflammatory cytokine IL-10 [3, 5]: increased | effect on major protective regulators of intestinal inflammation compared with butyrate [3, 6]: greater inducing effect | effect on multiple pro-inflammatory regulators of IBD compared with butyrate [3, 6]: greater reducing effect | impact on IL-23 expression compared with butyrate (IL-23): greater reducing impact | impact on IL-23 expression compared with butyrate (IL-23; listed as (R)-3HB): greater reducing effect | concentrations effective at reducing expression of IL-23 (IL-23; sodium salts): 10 to 100 µM | mRNA expression of IL-6 [4, 7]: decreased | mRNA expression of IL-23 [4, 7]: decreased | mRNA expression of NF-κβ [4, 7]: decreased | mRNA expression of TNF-α [4, 7]: decreased | mRNA expression of anti-inflammatory cytokine IL-10 [4, 7]: increased | mRNA expression of anti-inflammatory cytokine TGF-β1 [4, 7]: increased | effect on major protective regulators of intestinal inflammation compared with butyrate ([4]; organoids, data not shown): greater inducing effect | effect on multiple pro-inflammatory regulators of IBD compared with butyrate ([4]; organoids, data not shown): greater reducing effect
